In ChEMBL document CHEMBL4014354, “2'-Chloro,2'-fluoro Ribonucleotide Prodrugs with Potent Pan-genotypic Activity against Hepatitis C Virus Replication in Culture” (J Med Chem, 2017):

How the values were obtained:
[1] = Cytotoxicity against human HuH7 cells assessed as inhibition of cell proliferation after 4 days by MTS assay; type: cell-based, Huh-7
Hepatitis C virus [2] = assay: Antiviral activity against HCV genotype 1b harboring wild type NS5B infected in human HuH7 cells assessed as inhibition of viral RNA replication after 5 days by RT-PCR method; type: functional, cell-based, Hepacivirus hominis; details: Huh-7, 120 h
[3] = Cytotoxicity against African green monkey Vero cells assessed as inhibition of cell proliferation after 3 days by MTT assay; type: cell-based; details: chlorocebus sabaeus
[4] = Cytotoxicity against human PBMC assessed as inhibition of cell proliferation after 5 days by MTT assay; type: cell-based
[5] = Cytotoxicity against human CEM cells assessed as inhibition of cell proliferation after 4 days by MTT assay; type: cell-based, CCRF-CEM
[6] = Inhibition of RNA polymerase 2 isolated from human HeLa cell nuclear extract assessed as decrease in incorporation of P32-alpha-CTP after 2 hrs by scintillation counting method; type: cell-free
HepG2 [7] = assay: Mitochondrial toxicity in human HepG2 cells assessed as lactic acid production at 50 uM measured on day 14 by spectrophotometric method relative to control; type: cell-based; details: hepg2, 50 µM
[8] = tested on: cytochrome c oxidase subunit 2 DNA (mitochondrial DNA) levels; assay: Mitochondrial toxicity in human HepG2 cells assessed as inhibition of cytochrome c oxidase subunit 2 DNA levels measured on day 14 by RT-PCR method; type: cell-based
nuclear DNA levels [9] = assay: in vitro; details: human, HepG2 cells
[10] = tested on: cytochrome c oxidase subunit 2 DNA (mitochondrial DNA) levels; assay: Mitochondrial toxicity in human HepG2 cells assessed as inhibition of cytochrome c oxidase subunit 2 DNA levels at 50 uM measured on day 14 by RT-PCR method relative to nuclear beta-actin DNA levels; type: cell-based
Hepatitis C virus [11] = assay: Antiviral activity against HCV genotype 4 infected in human HuH7 cells assessed as inhibition of viral RNA replication after 96 hrs by RT-PCR method; type: functional, cell-based, Hepacivirus hominis; details: genotype 4, Huh-7, 96 h
HepG2 [12] = assay: Mitochondrial toxicity in human HepG2 cells assessed as cytochrome c oxidase subunit 2 DNA levels at 50 uM measured on day 14 by RT-PCR method relative to nuclear beta-actin DNA levels; type: cell-based; details: hepg2, 50 µM
[13] = tested on: cytochrome c oxidase subunit 2 DNA (mitochondrial DNA) levels; assay: in vitro; details: human, HepG2 cells
Hepatitis C virus [14] = assay: Antiviral activity against HCV genotype 1a infected in human HuH7 cells assessed as inhibition of viral RNA replication after 96 hrs by RT-PCR method; type: functional, cell-based, Hepacivirus hominis; details: subtype 1a, Huh-7, 96 h
Hepatitis C virus [15] = assay: Antiviral activity against HCV genotype 3a infected in human HuH7 cells assessed as inhibition of viral RNA replication after 96 hrs by RT-PCR method; type: functional, cell-based, Hepacivirus hominis; details: Huh-7, 96 h
Hepatitis C virus [16] = assay: Antiviral activity against HCV genotype 2b infected in human HuH7 cells assessed as inhibition of viral RNA replication after 96 hrs by RT-PCR method; type: functional, cell-based, Hepacivirus hominis; details: Huh-7, 96 h
HepG2 [17] = assay: Mitochondrial toxicity in human HepG2 cells assessed as cytochrome c oxidase subunit 2 DNA levels at 10 uM measured on day 14 by RT-PCR method relative to nuclear beta-actin DNA levels; details: hepg2, 10 µM
HepG2 [18] = assay: Cytotoxicity against human HepG2 cells assessed as inhibition of nuclear DNA levels measured on day 14 by RT-PCR method; details: HepG2, 336 h
nuclear DNA levels [19] = assay: Cytotoxicity against human HepG2 cells assessed as inhibition of nuclear DNA levels at 50 uM measured on day 14 by RT-PCR method relative to nuclear beta-actin DNA levels; type: cell-based; details: read-out: INH
HepG2 [20] = assay: Mitochondrial toxicity in human HepG2 cells assessed as lactic acid production at 10 uM measured on day 14 by spectrophotometric method relative to control; type: cell-based; details: hepg2, 10 µM
Hepatitis C virus [21] = assay: Antiviral activity against HCV genotype 2a/k infected in human HuH7 cells assessed as inhibition of viral RNA replication after 96 hrs by RT-PCR method; type: functional, cell-based, Hepacivirus hominis; details: Huh-7, 96 h
Hepatitis C virus [22] = assay: Antiviral activity against HCV genotype 1b infected in human HuH7 cells assessed as inhibition of viral RNA replication after 96 hrs by RT-PCR method; type: functional, cell-based, Hepacivirus hominis; details: Huh-7, 96 h
[23] = Inhibition of human DNA polymerase gamma using 5' end radiolabeled 24nt DNA/36nt DNA as primer/template after 120 mins by PAGE analysis
DNA polymerase beta = DNA polymerase beta (Homo sapiens, UniProt P06746); assay: Inhibition of human DNA polymerase beta using 5' end radiolabeled 24nt DNA/48nt DNA as primer/template after 5 mins by PAGE analysis
in vitro [24] = details: human, liver microsomes
Description: Clearance in human liver microsomes at 1 uM by LC-MS/MS analysis

in vitro [25] = details: human, liver microsomes; remark: listed apart in the source
Description: Half life in human liver microsomes at 1 uM by LC-MS/MS analysis

in vitro [26] = details: human, liver microsomes; remark: listed apart in the source
Description: Metabolic stability in human liver microsomes assessed as parent compound remaining at 1 uM at 60 mins by LC-MS/MS analysis

Row | SMILES | CC50 at 96 h [1] [µM] | EC50 (Hepatitis C virus [2]) [µM] | EC90 (Hepatitis C virus [2]) [µM] | CC50 at 72 h [3] [µM] | CC50 at 120 h [4] [µM] | CC50 at 96 h [5] [µM] | further results
1 | Nc1ncnc2c1ccn2[C@@H]1O[C@H](CO)C(O)C1(F)Cl (single isomer, unassigned) | > 10 | > 10 | > 10 |  |  |  | 
2 | CC(C)OC(=O)[C@H](C)NP(=O)(OC[C@H]1O[C@@H](n2cc(F)c3c(N)ncnc32)C(F)(Cl)C1O)Oc1ccccc1 (single isomer, unassigned) | > 10 | > 10 | > 10 | 60.9 | 99.7 | 55.3 | 
3 | Nc1nc2c(ncn2[C@@H]2O[C@H](CO)[C@@H](O)[C@]2(F)Cl)c(=O)[nH]1 | > 33 | 19 | 33 | > 100 | > 100 | > 100 | 
4 | C[C@@]1(O)[C@H](O)[C@@H](CO)O[C@H]1n1ccc(N)nc1=O | > 10 | 1.7 | 6.5 | > 100 | > 100 | > 100 | 
5 | CC[C@H](C)[C@@H]1NC(=O)CNC(=O)[C@@H]2Cc3c([nH]c4cc(O)ccc34)[S+]([O-])C[C@@H](NC(=O)CNC1=O)C(=O)N[C@@H](CC(N)=O)C(=O)N1C[C@H](O)C[C@H]1C(=O)N[C@@H]([C@@H](C)[C@@H](O)CO)C(=O)N2 (stereo partly drawn) [alpha-Amanitin] |  |  |  |  |  |  | IC50 [6]: 0.0025 µM
6 | Nc1ncnc2c1c(F)cn2[C@@H]1O[C@H](CO)C(O)C1(F)Cl (single isomer, unassigned) | > 10 | > 10 | > 10 | 42.4 | 82.6 | 19.9 | 
7 | O=c1ccn([C@@H]2O[C@H](CO)[C@@H](O)[C@]2(F)Cl)c(=O)[nH]1 | > 100 | > 100 | > 100 | > 100 | > 100 | > 100 | Activity (HepG2 [7]): 120%; IC50 at 14 days [8]: > 50 µM; cytotoxicity at 14 days, 10 µM (nuclear DNA levels [9]): 8.8%; inhibition at 14 days, 50 µM [10]: < 1%; IC50 (Hepatitis C virus [11]): > 60 µM; Activity (HepG2 [12]): 120%; inhibition at 14 days, 10 µM [13]: < 1%; IC50 (Hepatitis C virus [14]): > 60 µM; IC50 (Hepatitis C virus [15]): > 60 µM; IC50 (Hepatitis C virus [16]): > 60 µM; Activity (HepG2 [17]): 160%; IC50 (HepG2 [18]): > 50 µM; cytotoxicity at 14 days, 50 µM (nuclear DNA levels [19]): < 1%; Activity (HepG2 [20]): 85%; IC50 (Hepatitis C virus [21]): > 60 µM; IC50 (Hepatitis C virus [22]): > 60 µM
8 | CC(C)OC(=O)[C@H](C)NP(=O)(OC[C@H]1O[C@@H](n2cc(I)c3c(N)ncnc32)C(F)(Cl)C1O)Oc1ccccc1 (single isomer, unassigned) | > 10 | > 10 | > 10 | > 100 | > 100 | 69.3 | 
9 | Nc1ncnc2c1c(I)cn2[C@@H]1O[C@H](CO)C(O)C1(F)Cl (single isomer, unassigned) | > 10 | > 10 | > 10 | 11.5 | 6.6 | 7.3 | 
10 | CC(C)OC(=O)[C@H](C)NP(=O)(OC[C@H]1O[C@@H](n2cnc3c(=O)[nH]c(N)nc32)[C@@](F)(Cl)[C@@H]1O)Oc1ccccc1 (some centres undefined) | > 10 | 0.3 | 0.8 | > 100 | > 100 | > 100 | 
11 | Cc1cn([C@H]2CC[C@@H](COP(=O)(O)OP(=O)(O)OP(=O)(O)O)O2)c(=O)[nH]c1=O |  |  |  |  |  |  | IC50 [23]: 43 µM; IC50 (DNA polymerase beta): 19 µM
12 | CC(C)OC(=O)[C@H](C)NP(=O)(OC[C@H]1O[C@@H](n2ccc3c(N)ncnc32)C(F)(Cl)C1O)Oc1ccccc1 (single isomer, unassigned) | > 10 | > 10 | > 10 | > 100 | > 100 | 69 | 
13 | CC(C)OC(=O)[C@H](C)NP(=O)(OC[C@H]1O[C@@H](n2cnc3c(N)ncnc32)C(F)(Cl)C1O)Oc1ccccc1 (single isomer, unassigned) | > 33 | 0.6 | 2.1 | 53.9 | 84.8 | 36.3 | 
14 | Nc1ccn([C@@H]2CS[C@H](CO)O2)c(=O)n1 [LAMIVUDINE] |  |  |  |  |  |  | IC50 at 14 days [8]: > 10 µM
15 | Nc1ccn([C@@H]2O[C@H](CO)[C@@H](O)[C@]2(F)Cl)c(=O)n1 | > 10 | 0.3 | 0.9 | 8.4 | 12 | > 100 | 
16 | CC(C)OC(=O)[C@H](C)NP(=O)(OC[C@H]1O[C@@H](n2ccc(N)nc2=O)[C@@](F)(Cl)[C@@H]1O)Oc1ccccc1 (some centres undefined) | > 10 | 0.1 | 0.3 | > 100 | > 100 | > 100 | 
17 | Nc1ccn([C@H]2CC[C@@H](CO)O2)c(=O)n1 [ZALCITABINE] |  |  |  |  |  |  | IC50 at 14 days [8]: < 10 µM; cytotoxicity at 14 days, 10 µM (nuclear DNA levels [9]): 53%; inhibition at 14 days, 10 µM [13]: 96%; Activity (HepG2 [17]): 9.5%; IC50 (HepG2 [18]): < 10 µM; Activity (HepG2 [20]): 330%
18 | Nc1ncnc2c1ncn2[C@@H]1O[C@H](CO)C(O)C1(F)Cl (single isomer, unassigned) | > 10 | > 10 | > 10 | > 100 | > 100 | > 100 | 
19 | C[C@@]1(F)[C@H](O)[C@@H](CO)O[C@H]1n1ccc(=O)[nH]c1=O |  |  |  |  |  |  | IC50 (Hepatitis C virus [11]): > 100 µM; IC50 (Hepatitis C virus [14]): > 100 µM; IC50 (Hepatitis C virus [15]): > 100 µM; IC50 (Hepatitis C virus [16]): > 100 µM; IC50 (Hepatitis C virus [21]): > 100 µM; IC50 (Hepatitis C virus [22]): > 100 µM
20 | C[C@]12CC[C@H]3[C@@H](CCC4=CC(=O)CC[C@@]43C)[C@@H]1CC[C@@H]2O [TESTOSTERONE] |  |  |  |  |  |  | microsomal CLint at 1 µM (in vitro [24]): 92 µL/min/mg; half-life at 1 µM (in vitro [25]): 15 min; remaining at 1 h, 1 µM (in vitro [26]): 6.3%
21 | O=C(O)Cc1ccccc1Nc1c(Cl)cccc1Cl [DICLOFENAC] |  |  |  |  |  |  | microsomal CLint at 1 µM (in vitro [24]): 156 µL/min/mg; half-life at 1 µM (in vitro [25]): 8.9 min; remaining at 1 h, 1 µM (in vitro [26]): 1.2%
